# Source: ChEMBL document CHEMBL1201862, “PubChem BioAssay data set” (2004)
#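 48-hour exposure; five concentrations; linearly interpolated endpoints. GI50: concentration for 50% inhibition of growth.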 Calls of active or inactive are those of the source. No stated cut-off is given here; in the data, active = GI50 up to about 1.1 µM and inactive = higher.
# Tests used:
# Experiment in all cases: DTP human tumour cell line panel, 48 h
# T47D = system: T47D
# HCT-15 = system: HCT-15
# MCF7 = system: MCF7
# HL-60 = system: HL-60
# EKVX = system: EKVX
# OVCAR-5 = system: OVCAR-5
# NCI/ADR-RES = system: NCI/ADR-RES
# U-251 = system: U-251
# SK-OV-3 = system: SK-OV-3
# SF-539 = system: SF-539
# A549 = system: A549
# SK-MEL-28 = system: SK-MEL-28
# COLO 205 = system: COLO 205
# NCI-H522 = system: NCI-H522
# K562 = system: K562
# MDA-MB-231 = system: MDA-MB-231
# MOLT-4 = system: MOLT-4
# HCT-116 = system: HCT-116
# MDA-MB-435 = system: MDA-MB-435
# SW-620 = system: SW-620
# HT-29 = system: HT-29
# SF-295 = system: SF-295
# Hs-578T = system: Hs-578T
# OVCAR-4 = system: OVCAR-4
# NCI-H226 = system: NCI-H226
# SN12C = system: SN12C
# PC-3 = system: PC-3
# UACC-257 = system: UACC-257
# HOP-62 = system: HOP-62
# CAKI-1 = system: CAKI-1
# OVCAR-8 = system: OVCAR-8
# RPMI-8226 = system: RPMI-8226
# DU-145 = system: DU-145
# RXF 393 = system: RXF 393
# Malme-3M = system: Malme-3M
# OVCAR-3 = system: OVCAR-3
# CCRF-CEM = system: CCRF-CEM
# LOX IMVI = system: LOX IMVI
# UACC-62 = system: UACC-62
# KM12 = system: KM12
# 786-0 = system: 786-0
# NCI-H460 = system: NCI-H460
# HOP-92 = system: HOP-92
# SF-268 = system: SF-268
# NCI-H23 = system: NCI-H23
# A498 = system: A498
# UO-31 = system: UO-31
# ACHN = system: ACHN
# BT-549 = system: BT-549
# SNB-75 = system: SNB-75
# SK-MEL-5 = system: SK-MEL-5
# HCC 2998 = system: HCC 2998
# MDA-N = system: MDA-N
# SR = system: SR
# M14 = system: M14
# SK-MEL-2 = system: SK-MEL-2
# IGROV-1 = system: IGROV-1
# SNB-19 = system: SNB-19
# TK-10 = system: TK-10
smiles,measurement,setting,value
Cc1sc2nc3n(c(=O)c2c1C)N=C(c1ccc([N+](=O)[O-])cc1)CS3,GI50,T47D,> 100 µM (inactive)
same,GI50,HCT-15,> 100 µM
same,GI50,MCF7,> 100 µM (inactive)
same,GI50,HL-60,> 100 µM (inactive)
same,GI50,EKVX,> 100 µM (inactive)
same,GI50,OVCAR-5,> 100 µM (inactive)
same,GI50,NCI/ADR-RES,> 100 µM (inactive)
same,GI50,U-251,> 100 µM (inactive)
same,GI50,SK-OV-3,> 100 µM (inactive)
same,GI50,SF-539,> 100 µM (inactive)
same,GI50,A549,> 100 µM (inactive)
same,GI50,SK-MEL-28,> 100 µM (inactive)
same,GI50,COLO 205,> 100 µM (inactive)
same,GI50,NCI-H522,> 100 µM (inactive)
same,GI50,K562,> 100 µM (inactive)
same,GI50,MDA-MB-231,> 100 µM (inactive)
same,GI50,MOLT-4,> 100 µM (inactive)
same,GI50,HCT-116,> 100 µM (inactive)
same,GI50,MDA-MB-435,> 100 µM (inactive)
same,GI50,SW-620,> 100 µM (inactive)
same,GI50,HT-29,> 100 µM (inactive)
same,GI50,SF-295,> 100 µM (inactive)
same,GI50,Hs-578T,97.5 µM (inactive)
same,GI50,OVCAR-4,> 10 µM (inactive)
same,GI50,NCI-H226,> 100 µM (inactive)
same,GI50,SN12C,> 100 µM (inactive)
same,GI50,PC-3,> 100 µM (inactive)
same,GI50,UACC-257,> 100 µM (inactive)
same,GI50,HOP-62,61.9 µM (inactive)
same,GI50,CAKI-1,> 100 µM (inactive)
same,GI50,OVCAR-8,> 100 µM (inactive)
same,GI50,RPMI-8226,> 100 µM (inactive)
same,GI50,DU-145,> 100 µM (inactive)
same,GI50,RXF 393,> 100 µM (inactive)
same,GI50,Malme-3M,> 100 µM (inactive)
same,GI50,OVCAR-3,> 100 µM (inactive)
same,GI50,CCRF-CEM,> 100 µM (inactive)
same,GI50,LOX IMVI,> 100 µM (inactive)
same,GI50,UACC-62,> 100 µM (inactive)
same,GI50,KM12,> 100 µM (inactive)
same,GI50,786-0,> 100 µM (inactive)
same,GI50,NCI-H460,> 100 µM (inactive)
same,GI50,HOP-92,> 100 µM (inactive)
same,GI50,SF-268,> 100 µM (inactive)
same,GI50,NCI-H23,> 100 µM (inactive)
same,GI50,A498,> 100 µM (inactive)
same,GI50,UO-31,> 100 µM (inactive)
same,GI50,ACHN,> 100 µM (inactive)
same,GI50,BT-549,56.5 µM (inactive)
same,GI50,SNB-75,83.8 µM (inactive)
same,GI50,SK-MEL-5,> 100 µM (inactive)
same,GI50,HCC 2998,> 100 µM (inactive)
same,GI50,MDA-N,> 100 µM (inactive)
same,GI50,SR,> 100 µM (inactive)
Oc1ccc(SCc2cc(O)c(O)c(O)c2)cc1,GI50,T47D,> 100 µM (inactive)
same,GI50,HCT-15,39.9 µM
same,GI50,MCF7,20.4 µM (inactive)
same,GI50,HL-60,34.4 µM (inactive)
same,GI50,EKVX,> 100 µM (inactive)
same,GI50,OVCAR-5,22.4 µM (inactive)
same,GI50,NCI/ADR-RES,19.7 µM (inactive)
same,GI50,M14,17.9 µM (inactive)
same,GI50,U-251,37.1 µM (inactive)
same,GI50,SK-OV-3,65.9 µM (inactive)
same,GI50,SF-539,82.8 µM (inactive)
same,GI50,A549,49.5 µM (inactive)
same,GI50,SK-MEL-28,92.9 µM (inactive)
same,GI50,COLO 205,18.7 µM (inactive)
same,GI50,NCI-H522,22 µM (inactive)
same,GI50,K562,13.2 µM (inactive)
same,GI50,MDA-MB-231,36.4 µM (inactive)
same,GI50,MOLT-4,27 µM (inactive)
same,GI50,HCT-116,17.1 µM (inactive)
same,GI50,MDA-MB-435,22.4 µM (inactive)
same,GI50,SW-620,36.5 µM (inactive)
same,GI50,HT-29,23.5 µM (inactive)
same,GI50,SF-295,15.8 µM (inactive)
same,GI50,Hs-578T,77.8 µM (inactive)
same,GI50,NCI-H226,23.7 µM (inactive)
same,GI50,SN12C,26.4 µM (inactive)
same,GI50,PC-3,40.3 µM (inactive)
same,GI50,UACC-257,> 100 µM (inactive)
same,GI50,HOP-62,29 µM (inactive)
same,GI50,CAKI-1,39.6 µM (inactive)
same,GI50,OVCAR-8,21.6 µM (inactive)
same,GI50,RPMI-8226,26.7 µM (inactive)
same,GI50,DU-145,56.5 µM (inactive)
same,GI50,RXF 393,89.3 µM (inactive)
same,GI50,Malme-3M,61.5 µM (inactive)
same,GI50,OVCAR-3,39.4 µM (inactive)
same,GI50,SK-MEL-2,26.1 µM (inactive)
same,GI50,CCRF-CEM,19.3 µM (inactive)
same,GI50,LOX IMVI,35.9 µM (inactive)
same,GI50,UACC-62,16.9 µM (inactive)
same,GI50,KM12,20.3 µM (inactive)
same,GI50,786-0,37 µM (inactive)
same,GI50,IGROV-1,20.5 µM (inactive)
same,GI50,NCI-H460,19.1 µM (inactive)
same,GI50,HOP-92,> 100 µM (inactive)
same,GI50,SNB-19,59.4 µM (inactive)
same,GI50,SF-268,> 100 µM (inactive)
same,GI50,NCI-H23,41.4 µM (inactive)
same,GI50,A498,40.5 µM (inactive)
same,GI50,UO-31,24.8 µM (inactive)
same,GI50,ACHN,47.9 µM (inactive)
same,GI50,BT-549,25.6 µM (inactive)
same,GI50,SNB-75,46.5 µM (inactive)
same,GI50,SK-MEL-5,18 µM (inactive)
same,GI50,HCC 2998,> 10 µM (inactive)
same,GI50,TK-10,> 100 µM (inactive)
same,GI50,MDA-N,> 10 µM (inactive)
same,GI50,SR,25.5 µM (inactive)
N#C[C@H](c1nc2ccccc2[nH]1)c1nc2ccccc2nc1Cl,GI50,T47D,3.96 µM (inactive)
same,GI50,MCF7,> 26 µM (inactive)
same,GI50,HL-60,0.881 µM (active)
same,GI50,EKVX,9.68 µM (inactive)
same,GI50,OVCAR-5,> 44.3 µM (inactive)
same,GI50,NCI/ADR-RES,29.8 µM (inactive)
same,GI50,M14,> 23.4 µM (inactive)
same,GI50,U-251,15.8 µM (inactive)
same,GI50,SK-OV-3,> 53.8 µM (inactive)
same,GI50,SF-539,> 100 µM (inactive)
same,GI50,A549,> 54.5 µM (inactive)
same,GI50,SK-MEL-28,20.2 µM (inactive)
same,GI50,COLO 205,12.8 µM (inactive)
same,GI50,NCI-H522,2.85 µM (inactive)
same,GI50,K562,4.2 µM (inactive)
same,GI50,MDA-MB-231,12.7 µM (inactive)
same,GI50,MOLT-4,4.04 µM (inactive)
same,GI50,HCT-116,6.25 µM (inactive)
same,GI50,MDA-MB-435,14.3 µM (inactive)
same,GI50,SW-620,6.08 µM (inactive)
same,GI50,HT-29,5.55 µM (inactive)
same,GI50,SF-295,> 61.4 µM (inactive)
same,GI50,Hs-578T,2.05 µM (inactive)
same,GI50,OVCAR-4,> 35.2 µM (inactive)
same,GI50,NCI-H226,22.1 µM (inactive)
same,GI50,SN12C,12.7 µM (inactive)
same,GI50,PC-3,> 25.9 µM (inactive)
same,GI50,UACC-257,> 38.7 µM (inactive)
same,GI50,CAKI-1,4.68 µM (inactive)
same,GI50,OVCAR-8,12.6 µM (inactive)
same,GI50,RPMI-8226,8.93 µM (inactive)
same,GI50,DU-145,1.78 µM (inactive)
same,GI50,RXF 393,> 100 µM (inactive)
same,GI50,Malme-3M,12.4 µM (inactive)
same,GI50,OVCAR-3,> 100 µM (inactive)
same,GI50,CCRF-CEM,2.64 µM (inactive)
same,GI50,LOX IMVI,3 µM (inactive)
same,GI50,KM12,4.35 µM (inactive)
same,GI50,786-0,7.62 µM (inactive)
same,GI50,IGROV-1,11.2 µM (inactive)
same,GI50,NCI-H460,> 25.1 µM (inactive)
same,GI50,HOP-92,> 29 µM (inactive)
same,GI50,SNB-19,19.9 µM (inactive)
same,GI50,NCI-H23,> 34.3 µM (inactive)
same,GI50,A498,26.2 µM (inactive)
same,GI50,UO-31,> 47 µM (inactive)
same,GI50,ACHN,> 23.1 µM (inactive)
same,GI50,BT-549,> 28.2 µM (inactive)
same,GI50,SNB-75,12.9 µM (inactive)
same,GI50,SK-MEL-5,5.98 µM (inactive)
same,GI50,HCC 2998,> 40.6 µM (inactive)
same,GI50,TK-10,14 µM (inactive)
same,GI50,MDA-N,16.7 µM (inactive)
same,GI50,SR,3.09 µM (inactive)
